Source: publication PMC10960024, “Diindoles produced from commensal microbiota metabolites function as endogenous CAR/Nr1i3 ligands” (Nature Communications, 2024)

How the values were obtained:
[1] = test system: mCAR target genes (cyp2b10, cyp3a11, sult2a1) in mouse liver; experiment: qPCR of mCAR target genes in mouse liver after intraperitoneal treatment; format: in vivo; settings: for cyp2b10 expression in liver, wild-type mice: 25 mg/kg i.p. once daily for three days; for sult2a1 expression in liver: WT or Nr1i3-/- mice; for cyp3a11 expression in liver: mouse liver, with or without And pre-treatment
Procedure: 12–15 week-old C57BL/6 J mice were obtained from Jackson Laboratories and were housed on a standard 12 h light/dark cycle. Nr1i3^−/− mice with C57BL/6 J background were obtained from David Moore’s lab (PMID: 11057673) at Baylor College of Medicine, and used at 13–26 weeks of age. Wild-type male, female and Nr1i3^−/− male mice were used in this study, due to known sex-specific CAR activities. Mice were housed in groups of 2–5 mice per cage on a standard 12 h light/dark cycle and fed with rodent chow diet (Inotiv, Teklad rodent diet 2918). Temperature was maintained at 21 °C with a range of 21–24 °C and humidity at 16–51%. National Institute of Health guidelines for the care and use of laboratory animals were followed with all experiments performed as directed by the Institutional Animal Care and Use Committee at the University of Illinois, Urbana-Champaign (UIUC, IACUC protocol: 22183). Mice were acclimatized to the UIUC mouse facility for 2 weeks prior to experiments. DIM and DIE were dissolved in 5% DMSO in corn oil and injected intraperitoneally at 25 mg/kg once daily for three days. After 4 h of the third injection, mice were sacrificed to collect serum, livers and intestines. TCPOBOP was dissolved in corn oil and injected intraperitoneally at 3 mg/kg once and the livers collected after 3 days for further studies. When used to block CAR activity, 100 mg/kg androstenol was injected intraperitoneally 15 min prior to the first DIM or DIE treatment. RNA from mice livers was isolated using TRIzol (Invitrogen) reagent using the manufacturer’s instructions. 3–5 µg of RNA was used to synthesize cDNA with random primers (NEBioLabs) and Maxima Reverse Transcriptase kits (Thermo Fisher Scientific). cDNA was further diluted, and 50 ng was used for SYBR green (Thermo Fisher Scientific) based qRT-PCR. Relative gene expression was calculated by the delta Ct method and normalized to 36b4 levels as loading controls. qPCR primers for gene expression analysis are listed in Supplementary Table 3.

hCAR LBD-SRC1 protein = molecular target: T1, hCAR LBD-SRC1 protein (Homo sapiens, UniProt Q14994); experiment: Fluorescence thermal shift assay (TSA); format: binding; settings: diindoles at 12.5 µM; APO Tm 51.5 °C; means of triplicates
T1 construct: The human CAR LBD (Lys^108 – Ser^352) was amplified by PCR from cDNA; HIS6; made in house; host or cells: E. coli BL21(DE3)
T1 sequence (Q14994 108-352): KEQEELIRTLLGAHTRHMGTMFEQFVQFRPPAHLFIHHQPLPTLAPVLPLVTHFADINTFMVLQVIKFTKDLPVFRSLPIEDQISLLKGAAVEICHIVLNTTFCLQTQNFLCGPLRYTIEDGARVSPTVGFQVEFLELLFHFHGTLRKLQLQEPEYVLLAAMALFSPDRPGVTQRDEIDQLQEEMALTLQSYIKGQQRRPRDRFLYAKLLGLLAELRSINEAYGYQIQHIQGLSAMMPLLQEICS
Procedure: Purified hCAR LBD-SRC1 protein was assayed in 137 mM NaCl, 2.7 mM KCl, 10 mM Na2HPO4, and 1.8 mM KH2PO4, 0.5% DMSO, pH 7.4, at a final concentration of 2.2 µM. SYPRO Orange was used at a final concentration of 10× (Invitrogen, S6650). Each sample was divided into three 25 µL replicates. Sample solutions were dispensed into 96-well optical reaction plates (Thermo Fisher Scientific, 4306737) and sealed with optical PCR plate sheets (Thermo Fisher Scientific, AB-1170). TSA experiments were carried out using a QuantStudio 12 K Flex Real Time PCR System (Applied Biosystems). The temperature was ramped up from 25 °C to 95 °C at a rate of 0.3 °C/min, and SYPRO orange fluorescence monitored. Raw fluorescence data and melting temperatures were determined using nonlinear regression curve fitting using GraphPad Prism 9.

[2] = test system: cyp2b6, cyp3a4, sult2a1 mRNA in PHH; experiment: RT-qPCR of CAR target genes in primary human hepatocytes; format: cell-based; settings: two donors, 48 h
Procedure: PHH culture, RNA extraction and gene expression analyses were performed as described previously. Primer sequences for cyp2b6, cyp3a4, sult2a1, and glyceraldehyde-3-phosphate dehydrogenase (gapdh) are shown in Supplementary Table 3.

hCAR = molecular target: T2, hCAR (Homo sapiens, UniProt Q14994); experiment: hCAR nuclear translocation in primary human hepatocytes (Ad/EYFP-hCAR); format: cell-based; settings: PHHs from two individuals; 10 µM, 8 h
T2 construct: expressed in transfected cells; host or cells: primary human hepatocytes infected with Ad/EYFP-hCAR
T2 sequence (Q14994 1-352): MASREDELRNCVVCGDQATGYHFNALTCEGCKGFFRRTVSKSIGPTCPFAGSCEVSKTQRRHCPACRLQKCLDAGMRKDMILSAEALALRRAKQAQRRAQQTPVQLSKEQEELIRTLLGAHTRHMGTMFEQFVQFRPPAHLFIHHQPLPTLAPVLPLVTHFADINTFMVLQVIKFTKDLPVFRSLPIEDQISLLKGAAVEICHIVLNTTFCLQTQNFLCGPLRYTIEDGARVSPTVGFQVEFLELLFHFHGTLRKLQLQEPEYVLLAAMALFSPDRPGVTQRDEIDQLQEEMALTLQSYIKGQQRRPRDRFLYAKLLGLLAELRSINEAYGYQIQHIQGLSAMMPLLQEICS
Procedure: 24 h after seeding at 0.25 × 10^6 cells/well in 24-well biocoat plate, PHHs were infected with 2 µL of adenoviral enhanced yellow fluorescent protein-tagged hCAR (Ad/EYFP-hCAR) followed by treatment with 0.1% DMSO, phenobarbital (PB) (1 mM), DIM (10 µM) or DIE (10 µM) for 8 h. Cells were washed with phosphate-buffered saline and fixed for 30 min with 4% formaldehyde at room temperature and then stained with 4,6-diamidine-2-phenylindole dihydrochloride for 30 min after washing three times with phosphate-buffered saline. The subcellular localization of hCAR and nuclei were visualized using a Nikon Eclipse Ti-E inverted fluorescence microscope (Nikon, Edgewood, NY) in YFP/FITC and DAPI fluorescence channels. Compounds were added to the plate in triplicate and results analyzed as detailed below with z-factors calculated as previously described.

Compound | cyp2b10 expression in liver, wild-type mice [1] | sult2a1 expression in liver [1] | cyp3a11 expression in liver [1] | Tm (hCAR LBD-SRC1 protein) [°C] | cyp2b6 mRNA expression [2] | cyp3a4 mRNA expression (joint CAR/PXR target gene) [2] | sult2a1 mRNA expression (non-target gene) [2] | hCAR nuclear relocation (hCAR)
c1ccc2c(Cc3c[nH]c4ccccc34)c[nH]c2c1 [DIM, diindolylmethane] | robustly induced | did not show significant responses | did not affect | 57.1 | selectively upregulated | more variable | no effects | efficiently promote hCAR nuclear relocation
CC(c1c[nH]c2ccccc12)c1c[nH]c2ccccc12 [DIE, 3,3’-diindolylethane] | robustly induced | did not show significant responses | did not affect | 59.6 | selectively upregulated | more variable | no effects | efficiently promote hCAR nuclear relocation
